US20230115817A1, “CRYSTAL OF PDE3/PDE4 DUAL INHIBITOR AND USE THEREOF” (Chia Tai Tianqing Pharmaceutical Group Co., Ltd., priority 2020, published 2023)

Columns and labels:
[1] = Solid stability testing of crystalline form B (HPLC); assay type: physicochemical
Procedure: Example 6: Stability Study of Solid Crystalline Form B of the Compound of Formula (I) High Performance Liquid Chromatography (HPLC)
The chromatographic conditions of the HPLC method are seen in table below: Chromatographic column: Zorbax SB C-18, 4.6 mm×150 mm, 5 μm (PDS-HPLC-007)
Mobile phase A: 0.1% TFA in water
Preparation of sample: the sample was dissolved in a mixed solvent of acetonitrile and water (acetonitrile:water=50:50 (v/v))
The stability of the compound in the following conditions was examined, and samples were taken at different time points to detect the content. About 5 mg of the crystalline form B of the compound of formula (I) was accurately weighted in duplicate, transferred to a dry and clean glass bottle, spread into a thin layer as test samples, and placed in experimental conditions of influential factors ((60° C.), (relative humidity 92.5%), illumination (total illumination of 1.2×106 Lux·hr/near UV energy of 200 w·hr/m2), (40° C., relative humidity 75%), or (60° C., relative humidity 75%)). The samples were covered with aluminum foils having holes, and thus completely exposed to the conditions. Sampling analysis was performed at 5 days, 10 days, 1 month, 2 months and 3 months. The samples were completely exposed to illumination (visible light of 1200000 Lux, UV of 200 W) at room temperature.

[2] = Hygroscopicity study (dynamic vapor sorption); assay type: physicochemical; conditions: 25° C., 0%-90%-0% RH
Procedure: Example 7: Hygroscopicity Study of Crystalline Form B of Compound of Formula (I)
Instrument model: SMS DVS Advantage
Test conditions: the sample (10-20 mg, the crystalline form B prepared in Example 3) was placed in DVS sample tray for testing.
Balancing: dm/dt=0.01%/min (shortest: 10 min, longest: 180 min)
Drying: drying at 0% RH for 120 min
RH (%) test gradient: 10%

[3] = cited from earlier work
[4] = in vivo; cited from earlier work
[5] = system: PDE4; conditions: cited from earlier work
[6] = Pharmacokinetic study in beagle dogs; assay type: in vivo
Procedure: Experimental Example 3: Pharmacokinetic Study in Beagle Dogs
In this study, male beagle dogs were selected as test animals, and LC-MS/MS was used for quantitatively measuring the drug concentration in plasma of beagle dogs at different time points after intravenous injection or intragastric administration of the compound of formula (I) so as to evaluate the pharmacokinetics of the compound of formula (I) in beagle dogs.
The clear solution of the compound of formula (I) was injected into two beagle dogs of 10-12 kg via the cephalic vein or saphenous vein, and the clear solution of the compound of formula (I) was administered intragastrically to two beagle dogs of 10-12 kg (fasted overnight). The animals were all subjected to a blood collection of approximately 500 μL each time from peripheral veins at 0.0333, 0.0833, 0.25, 0.5, 1, 2, 4, 6, 8 and 24 h post-dose, and the blood was transferred into commercial centrifuge tubes containing 0.85-1.15 mg of K2 EDTA.2H2O anticoagulant, and plasma was separated by centrifugation at 3000 g for 10 min at 4° C. The plasma concentration was measured by LC-MS/MS, and the relevant pharmacokinetic parameters were calculated using pharmacokinetic software WinNonlin™ Version 6.3 (Pharsight, Mountain View, Calif.) using non-compartmental model linear-log trapezoidal method.

[7] = system: cigarette smoke-induced rat acute lung injury model; assay: Pharmacodynamic study in cigarette smoke-induced rat acute lung injury model; assay type: in vivo, Sprague-Dawley rats; conditions: atomization 0.05 and 0.15 mg/ml, 30 min daily
Procedure: Experimental Example 5: Pharmacodynamic Study in Cigarette Smoke-Induced Rat Acute Lung Injury Model
Male Sprague-Dawley rats (supplied by Shanghai SLAC Laboratory Animal Co., Ltd.), SPF grade, approximately 200 g.
1. Animals were randomly divided into 6 groups according to body weight after arrival and a one-week acclimation;
2. On days 1-3 of the experiment, the corresponding compound of each group was atomized for 30 min. The animals in the model group and the treatment groups were exposed to cigarette smoke for 1 h, and after a 4-h interval, the animals were exposed to cigarette smoke again for 1 h. Cigarette smoke was given twice daily for 3 consecutive days. The control group animals were exposed to room air;
3. On day 4 of the experiment, the corresponding compound of each group was atomized for 30 min, and then the animals in the model group and the treatment groups were given the atomized 150 ng/mL LPS for 15 min by inhalation. After 3 h (from the time starting atomization), the animals were exposed to cigarette smoke for 1 h, and then the lung function (Penh and F) of the animals was examined; bronchoalveolar lavage fluid was collected for cell counting after the animals were euthanized with CO2. […]

[8] = intragastric administration 3 mg/kg
[9] = intravenous injection 0.5 mg/kg

With CCOc1cc2c(cc1OC)-c1c/c(=N\c3c(C)cc(C)cc3C)n(CCNC(=O)c3c(O)nnn3C)c(=O)n1CC2 the Total impurities % ([1]; 40° C.-75% RH-1 month) was 0.10%, the Total impurities % ([1]; 40° C.-75% RH-2 months) was 0.08% and the Total impurities % ([1]; 40° C.-75% RH-3 months) was 0.09%. It also gave a Total impurities % ([1]; 40° C.-75% RH-10 days) of 0.10%, a Total impurities % ([1]; 60° C.-75% RH-1 month) of 0.10% and a Total impurities % ([1]; 60° C.-75% RH-10 days) of 0.10%. For the same compound, the Total impurities % ([1]; 60° C.-5 days) was 0.10%, the Total impurities % ([1]; 60° C.-10 days) was 0.11% and the Total impurities % ([1]; 92.5% RH-5 days) was 0.11%. It also gave a Total impurities % ([1]; 92.5% RH-10 days) of 0.10%, a Total impurities % ([1]; Day 0) of 0.11% and a Total impurities % ([1]; Illumination (1.2×106 Lux·hr, near UV 200 w·hr/m2)) of 0.10%. For the same compound, the Total impurities % ([1]; In the dark) was 0.11%, the “Solid stability (in words)” value ([1]; high temperature, high humidity or illumination) was “good stability” and the “Hygroscopicity (DVS, in words)” value [2] was “low hygroscopicity”.
In the case of COc1cc2c(cc1OC)-c1cc(Oc3c(C(C)C)cccc3C(C)C)nc(=O)n1CC2 [RPL565], the “Solubility (in words)” value [3] is given as “poor solubility”, the “Plasma clearance (in words)” value [4] is given as “high plasma clearance” and the “PDE4 inhibitory activity (in words)” value [5] is given as “unsatisfactory”.
For COc1cc2c(cc1OC)-c1c/c(=N\c3c(C)cc(C)cc3C)n(CCNC(N)=O)c(=O)n1CC2 [RPL554], the “Solubility (in words)” value [3] is listed as “poor solubility”, the “Plasma clearance (in words)” value [4] is listed as “high plasma clearance” and the “PDE4 inhibitory activity (in words)” value [5] is listed as “unsatisfactory”.
For CCOc1cc2c(cc1OC)-c1c/c(=N\c3c(C)cc(C)cc3C)n(CCNC(=O)c3c(O)nnn3C)c(=O)n1CC2 [Compound of formula (I)], the “Area under plasma concentration-time curve (0-inf)” value [6, 8] was 0.123 µM·h, the Peak concentration [6, 8] was 59.4 nM and the Time to peak [6, 8] was 0.6 h. The “Area under plasma concentration-time curve (0-inf)” value [6, 9] was 0.21 µM·h, the Half-life [6, 9] was 18 min and the Plasma clearance [6, 9] was 70.3 mL/min/kg. For the same compound, the bioavailability ([6]; male, dog, plasma, po, intragastric administration 3 mg/kg) was 7.5%, the “Airway resistance index Penh (Mch challenge)” value [7] was “reduce” and the “Total number of white blood cells in BALF” value [7] was “reduce”.
